The results in this text go back to patent US8568696B2, “Grinding method for the manipulation or preservation of calcium phosphate hybrid properties” (Indiana Nanotech LLC, priority 2008, dated 2013).

Data set [1] is described as follows: Long-term accelerated aging of NaF(aq)-hybrid suspensions, fluoride availability by fluoride-sensitive electrode. Format: physicochemical. Particulars: supernatant, triplicate. The procedure: Long-term accelerated aging studies were performed on NaF(aq)-hybrid suspensions. The experiments were carried out in triplicate with 1 mL of each supernatant aspirated, mixed with 1 mL of TISAB II (1:1), and measured with a fluoride-sensitive electrode calibrated to known standards of 100, 950, and 1900 ppm fluoride.
The purpose of this study was to determine if the NaF(aq)-hybrid suspensions maintain sufficient fluoride availability. • 0.24% and 0.32% NaF systems were aged for 122 Days @ 40° C. • 0.05% NaF systems were aged for 119 Days @ 40° C. Results

Data set [2] is described as follows: In vitro remineralization/demineralization pH cycling study, Vickers surface microhardness of eroded enamel. Details: species or system Bovine. Particulars: change in Vickers microhardness relative to baseline. The procedure:
An efficacy study was run in order to evaluate in multiple pH remin/demin cycling models the efficacy of calcium phosphate blends prepared as described above in remineralizing eroded enamel. These studies involved 226 ppm fluoride rinse systems.
The experiment design for the remineralization/demineralization pH cycling study is as follows. Bovine enamel specimens were extracted, ground, and polished. Initial erosion was performed by immersing each enamel specimen in 10 ml of 1% citric acid (pH=3.8) for 30 minutes. After the immersion, four baseline Vickers indentations under a 200 gf load for 15 seconds were made on each specimen and those with a Vickers microhardness number between 200 and 230 VHN were selected for the study. There were three groups in this study (N=10 specimens per group): • Group 1: negative control (DI water) • Group 2: positive control (226 ppm F) • Group 3: 226 ppm F plus 0.004% β-tricalcium phosphate-silica-carbamide
The cycling regimen consisted of five, two-minute/day acid challenges and three, two-minute treatments/day. In between treatments and acid challenges, each specimen was immersed in artificial mineral mix. This process was repeated up to 20 days, after which a post-cycle acid challenge was administered using 1% citric acid (pH=3.8) for 11 minutes. The specimens were evaluated for Vickers surface microhardness after 10 and 20 days as well as after the post-cycle acid challenge. The change in Vickers microhardness relative to baseline values was then used as the performance gauge. Remineralization efficacy was evaluated by comparing post surface Vickers microhardness numbers to baseline surface Vickers values. Means and standard deviations of the means were calculated and the Student Q-test was employed to assess accuracy of the individual specimen measurements within each group. […]
This cycling study evaluated the β-tricalcium phosphate-silica-carbamide blend when combined in a 226 ppm fluoride (NaF(aq)) solution and tested in a pH cycling model. […]

With `[F-].[Na+]` [0.24% NaF Control], the “Mean ppm F ± Std. Dev” value in data set [1] (aged for 122 Days @ 40° C.) amounted to 1080.7 ± 4.8 ppm F.

In the case of `[F-].[Na+]` [0.32% NaF Control], the “Mean ppm F ± Std. Dev” value in data set [1] (aged for 122 Days @ 40° C.) was 1493.3 ± 3.3 ppm F.

In the case of `[F-].[Na+]` [Group 2], the “Mean ΔVHN ± SEM, after 10 days” value in data set [2] (10 days pH cycling, N=10 specimens per group) is listed as 73.2 ± 7.0^2. Moreover, the “Mean ΔVHN ± SEM, after 20 days” value in data set [2] (20 days pH cycling, N=10 specimens per group) is listed as 67.6 ± 7.6^2. Further, the “Mean ΔVHN ± SEM, after post-cycle acid challenge” value in data set [2] (after 11-minute post-cycle acid challenge, 1% citric acid pH 3.8) is reported as 81.9 ± 7.1^2.

Take `[F-].[Na+]` [0.05% NaF Control]: the “Mean ppm F ± Std. Dev” value in data set [1] (aged for 119 Days @ 40° C.) was found to be 231.7 ± 0.5 ppm F.
